Assay results: patent US7202068B2, “Enone reductase and methods of making and using thereof” (priority 2002, dated 2007)

System: enone reductase
Test: Substrate specificity of the enone reductase (standard enzyme assay with various substrates)
Format: biochemical, Candida kefyr (Candida macedoniensis) IFO 0960
Conditions: 0.05% final concentration, 30° C.
Method: (§1) The standard enzyme assay was performed as follows: a total volume of 1 ml of the basal reaction mixture (200 μl of 1 M Tris-HCl buffer pH 7.5, 100 μl of 80 mM NADH or NADPH, 100 μl of 0.658 M ketoisophorone, 600 μl H2O) was supplemented by 5 μl of the enzyme solution and incubated at 40° C. One unit of the enzyme activity was defined as the amount of the enzyme, which catalyzes the […] of 1 μmol of ketoisophorone per minute. The reaction mixture was extracted by 1 ml of ethylacetate to recover the levodione into the ethylacetate layer. The extract was analyzed by gas chromatography [column: ULBON HR-20M (Shinwa, Japan) 0.25 mmφ×30 m, column temperature: 160° C. (constant), injector temperature: 250° C., carrier gas: He (ca. 1 ml/min)]. The protein concentration was determined by using a Bio-Rad protein assay kit (Bio-Rad, USA).
Substrate specificity of the enzyme was determined by using the same enzyme assay method as described above under (1), except that various substrate solutions (0.05% final concentration in the reaction mixture) were used instead of ketoisophorone, and the reaction was done at 30° C. The relative activity (%) of different substrates is compared in Table 1, showing the best result with 3-butene-2-one.

| Molecule | relative activity of different substrates (in words) |
| --- | --- |
| C=CC(C)=O [3-Butene-2-one] | best result |

Same assay, conditions: as substrate, 0.05% final concentration, 30° C., ketoisophorone = 100

| Molecule | Relative Activity (%) |
| --- | --- |
| O=[N+]([O-])C1=CCCCC1 [1-Nitro-1-cyclohexen] | 373.8% |
| O=C1C=CCCC1 [2-Cyclohexen-1-one] | 252.1% |
| C=CC(C)=O [3-Butene-2-one] | 403.3% |
| O=CC=Cc1ccccc1 [Cinnamaldehyde] | 216.7% |
| CC1=CC(=O)CC(C)(C)C1=O [Ketoisophorone, 2,6,6-trimethyl-2-cyclohexene-1,4-dione] | 100% |
| R-(−)-Carvone | 56.3% |

System: enone reductase
Test: Effect of metal ions and other compounds on the enzyme activity
Format: biochemical, Candida kefyr (Candida macedoniensis) IFO 0960
Conditions: not given

| Molecule | Relative Activity (%) | inhibition of the enzyme activity (in words) |
| --- | --- | --- |
| O=[N+]([O-])[O-].[Ag+] [AgNO3] | 49.1% | inhibited the enzyme activity moderately |
| O=S(=O)([O-])[O-].[Be+2] [BeSO4] | 80.9% |  |
| [Ca+2].[Cl-].[Cl-] [CaCl2] | 108% |  |
| [Cl][Cd][Cl] [CdCl2] | 104% |  |
| O=S(=O)([O-])[O-].[Cu+2] [CuSO4] | 55.9% | inhibited the enzyme activity moderately |
| O=C(O)CN(CCN(CC(=O)O)CC(=O)O)CC(=O)O [EDTA] | 110% |  |
| O=C(O)CI [Iodoacetate] | 93.6% |  |
| [Cl-].[K+] [KCl] | 103% |  |
| [Cl-].[Cl-].[Mg+2] [MgCl2] | 111% |  |
| [Cl][Mn][Cl] [MnCl2] | 94.6% |  |
| [NH4+].[O]=[V](=[O])[O-] [NH4VO3] | 9.6% | inhibited the enzyme activity moderately |
| [Cl-].[Na+] [NaCl] | 108% |  |
| [F-].[Na+] [NaF] | 101% |  |
| N#C[S-].[Na+] [NaSCN] | 93.6% |  |
| [Cl][Ni][Cl] [NiCl] | 108% |  |
| O=[N+]([O-])[O-].O=[N+]([O-])[O-].[Pb+2] [Pb(NO3)2] | 0% | inhibited the enzyme activity strongly |
| [Cl-].[Rb+] [RbCl] | 107% |  |
| C[n+]1c2cc(N)ccc2cc2ccc(N)cc21.[Cl-] [Trypaflavine] | 0% | inhibited the enzyme activity strongly |
| O=S(=O)([O-])[O-].[Zn+2] [ZnSO4] | 101% |  |
| CoCl2 | 113% |  |

Same assay, conditions: compound added, final concentration of metal 1 mM, substrate 2-cyclohexen-1-one, None = 100

| Molecule | Relative Activity (%) |
| --- | --- |
| N=C(N)N [Guanidine] | 61.1% |
| [Cl][Hg][Cl] [HgCl2] | 40.8% |
| [Cl-].[Li+] [LiCl] | 104% |

Same assay, conditions: final concentration of metal 1 mM, substrate 2-cyclohexen-1-one

| Molecule | inhibition of the enzyme activity (in words) |
| --- | --- |
| N=C(N)N [Guanidine] | inhibited the enzyme activity moderately |
| [Cl][Hg][Cl] [HgCl2] | inhibited the enzyme activity moderately |

System: enone reductase
Test: Cofactor requirement of the enzyme to convert ketoisophorone to levodione
Format: biochemical, Candida kefyr (Candida macedoniensis) IFO 0960
Conditions: not given
Method: as §1
The cofactor requirement of the enzyme to convert ketoisophorone to levodione was investigated.

| Molecule | serves as co-factor for the reductive reaction |
| --- | --- |
| NC(=O)C1=CN([C@@H]2O[C@H](COP(=O)(O)OP(=O)(O)OC[C@H]3O[C@@H](n4cnc5c(N)ncnc54)[C@H](O)[C@@H]3O)[C@@H](O)[C@H]2O)C=CC1 [NADH] | could serve as a co-factor |
| NC(=O)C1=CN([C@@H]2O[C@H](COP(=O)(O)OP(=O)(O)OC[C@H]3O[C@@H](n4cnc5c(N)ncnc54)[C@H](OP(=O)(O)O)[C@@H]3O)[C@@H](O)[C@H]2O)C=CC1 [NADPH] | could serve as a co-factor |
